Reference: patent US9808469B2, “Antitumor activity of multi-kinase inhibitors in triple negative breast cancer” (ENTRECHEM, S.L, priority 2014, dated 2017)
Where two headings read alike, the source gives them in different places.

How the values were obtained:
[1] = test system: MDA-MB-231 cells; test: MTT metabolization, inhibition of MDA-MB-231 cell proliferation; type: cell-based; conditions: Homo sapiens, read-out: Percentage inhibition Formula (III) mean
Method: (§1) These triple negative breast cancer cell lines were obtained from the American Type Culture Collection Cell Biology Collection (ATCC) (Manassas, Va.). The medium was changed every 2 days.
(§2) Cell proliferation and growth experiments were carried out using 3-(4,5-dimethylthiazol-2-yl)-2,5-diphenyltetrazolium bromide (MTT) uptake assays, where MTT is reduced to purple formazan by the mitochondria of living cells. Increase in cell number is detected by augmented MTT metabolization, and decrease in cell number is reflected by a decrease. […] The cells were treated with the drug at different concentrations to plot the dose-response curves in all cancer cell lines using in the study. […] After treatment, each well was replaced with 250 μL of fresh medium containing MTT ([…]) and incubated for 1 hour. The medium was then removed and 500 μL of dimethyl sulfoxide was added to each well. The plate was agitated in the dark for 5 minutes to dissolve the MTT-formazan crystals. The absorbance of the samples was recorded at 562 nm in a multi-well plate reader (BMG labtech). Results were plotted as the mean values of quadruplicates from a representative experiment that was repeated at least two independent times.
(§3) Combination index values less than 1 indicate synergism, values equal to 1 indicate an additive effect, whereas values greater than 1 indicate antagonism. Combination index values from three independent experiments were generated.

[2] = test system: BT-549 cells; test: MTT metabolization, inhibition of BT-549 cell proliferation; type: cell-based; conditions: Homo sapiens, read-out: Percentage inhibition Formula (III) mean
Method: as §1, §2, §3

[3] = test system: HS578T, BT549, MDA-MB-231 and HCC3153 cells; test: MTT metabolization in a panel of TNBC cell lines; type: cell-based
Method: Hs578T, BT549 and MDA-MB-231 were grown in DMEM and HCC3153 in RPMI; both mediums were purchased from Sigma Aldrich, supplemented with 10% FBS, 100 mU/mL penicillin, 100 μg/mL streptomycin and 2 mM L-glutamine, in a 5% CO2 atmosphere at 37° C. These triple negative breast cancer cell lines were obtained from the American Type Culture Collection Cell Biology Collection (ATCC) (Manassas, Va.). The medium was changed every 2 days.
Cell proliferation and growth experiments were carried out using 3-(4,5-dimethylthiazol-2-yl)-2,5-diphenyltetrazolium bromide (MTT) uptake assays, where MTT is reduced to purple formazan by the mitochondria of living cells. Increase in cell number is detected by augmented MTT metabolization, and decrease in cell number is reflected by a decrease. HS578T, BT549, MDA-MB-231 and HCC3153 cells were plated at a density of 1×10^4 cells per well in 24-well plates and cultured overnight in DMEM supplemented with 10% FBS. The cells were treated with the drug at different concentrations to plot the dose-response curves in all cancer cell lines using in the study. […] After treatment, each well was replaced with 250 μL of fresh medium containing MTT ([…]) and incubated for 1 hour. The medium was then removed and 500 μL of dimethyl sulfoxide was added to each well. The plate was agitated in the dark for 5 minutes to dissolve the MTT-formazan crystals. The absorbance of the samples was recorded at 562 nm in a multi-well plate reader (BMG labtech). Results were plotted as the mean values of quadruplicates from a representative experiment that was repeated at least two independent times.

[4] = test system: BT549 cells; test: Cell cycle analysis by flow cytometry (propidium iodide); type: cell-based; conditions: 500 nM, 24 h
Method: (§4) Cell cycle analyses and evaluation of apoptosis were performed by flow cytometry using propidium iodide and Annexin V, respectively.
(§5) For cell cycle analyses, HS578T, BT549 and MDA-MB-231 cells were cultured in 100-mm culture dishes, grown to 70% confluence, and treated with 500 nM Formula (III) for 24 h. Cell monolayers were then incubated in trypsin-EDTA and resuspended in 1 mL of PBS. After three washes with PBS, the cell pellets were resuspended in ice cold 70% ethanol for 2 min and centrifuged 5 min at 1800 rpm. The cell pellets were treated with 1 mL of propidium iodide (PI) staining solution (PBS containing 50 μg/mL of PI, 0.5% Tween 20, 0.1 μg/mL RNase A) (BD Biosciences) and incubated in the dark for 1 h. DNA content and cell cycle analyses were performed by using a FACS canto II flow cytometer and the CellQuest software (BD Biosciences).

[5] = test system: HS578T cells; test: as above; type: cell-based; conditions: 500 nM, 24 h
Method: as §4, §5

[6] = test system: MDA-MB-231 cells; test: as above; type: cell-based; conditions: 500 nM, 24 h
Method: as §4, §5

[7] = test system: tyrosine and serine/threonine kinases; test: Biochemical kinase assays

C[C@]12O[C@H](C[C@@H](O)[C@H]1O)n1c3ccccc3c3c4c(c5c6ccccc6n2c5c31)C(=O)NC4=O [Formula (III)]
viability at 0.1 µM ([1]; MDA-MB-231, Formula (III) 100 nM alone (Table 4)): 56.4% | viability at 0.1 µM ([1]; MDA-MB-231, Formula (III) 100 nM alone (Table 5)): 62.5% | viability at 0.12 µM ([1]; MDA-MB-231, Formula (III) 120 nM alone (Table 2)): 63.8% | viability at 0.12 µM ([1]; MDA-MB-231, Formula (III) 120 nM alone): 63.8% | viability at 0.18 µM ([1]; MDA-MB-231, Formula (III) 180 nM alone (Table 2)): 49.8% | viability at 0.18 µM ([1]; MDA-MB-231, Formula (III) 180 nM alone): 49.8% | viability at 0.2 µM ([1]; MDA-MB-231, Formula (III) 200 nM alone (Table 3)): 60.3% | viability at 0.2 µM ([1]; MDA-MB-231, Formula (III) 200 nM alone (Table 4)): 56.4% | viability at 0.2 µM ([1]; MDA-MB-231, Formula (III) 200 nM alone (Table 5)): 46.9% | viability at 0.24 µM ([1]; MDA-MB-231, Formula (III) 240 nM alone (Table 2)): 38.2% | viability at 0.24 µM ([1]; MDA-MB-231, Formula (III) 240 nM alone): 38.2% | viability at 0.26 µM ([1]; MDA-MB-231, Formula (III) 260 nM alone (Table 3)): 54.5% | viability at 0.3 µM ([1]; MDA-MB-231, Formula (III) 300 nM alone (Table 2)): 28.1% | viability at 0.3 µM ([1]; MDA-MB-231, Formula (III) 300 nM alone (Table 3)): 49.4% | viability at 0.3 µM ([1]; MDA-MB-231, Formula (III) 300 nM alone (Table 4)): 40.2% | viability at 0.3 µM ([1]; MDA-MB-231, Formula (III) 300 nM alone (Table 5)): 40.5% | viability at 0.3 µM ([1]; MDA-MB-231, Formula (III) 300 nM alone): 28.1% | viability at 0.38 µM ([1]; MDA-MB-231, Formula (III) 380 nM alone (Table 3)): 36.9% | viability at 0.4 µM ([1]; MDA-MB-231, Formula (III) 400 nM alone (Table 4)): 35.3% | viability at 0.4 µM ([1]; MDA-MB-231, Formula (III) 400 nM alone (Table 5)): 33.7% | inhibition at 0.1 µM ([2]; BT-549, Formula (III) 100 nM alone (Table 9)): 68.8% | inhibition at 0.1 µM ([2]; BT-549, Formula (III) 100 nM alone (Table 10)): 90.8% | inhibition at 0.12 µM ([2]; BT-549, Formula (III) 120 nM alone (Table 7)): 75.5% | inhibition at 0.12 µM ([2]; BT-549, Formula (III) 120 nM alone): 75.5% | inhibition at 0.18 µM ([2]; BT-549, Formula (III) 180 nM alone (Table 7)): 63.7% | inhibition at 0.18 µM ([2]; BT-549, Formula (III) 180 nM alone): 63.7% | inhibition at 0.2 µM ([2]; BT-549, Formula (III) 200 nM alone (Table 8)): 98.5% | inhibition at 0.2 µM ([2]; BT-549, Formula (III) 200 nM alone (Table 9)): 72.1% | inhibition at 0.2 µM ([2]; BT-549, Formula (III) 200 nM alone (Table 10)): 71.4% | inhibition at 0.24 µM ([2]; BT-549, Formula (III) 240 nM alone (Table 7)): 45% | inhibition at 0.24 µM ([2]; BT-549, Formula (III) 240 nM alone): 45% | inhibition at 0.26 µM ([2]; BT-549, Formula (III) 260 nM alone (Table 8)): 92.9% | inhibition at 0.3 µM ([2]; BT-549, Formula (III) 300 nM alone (Table 7)): 31.9% | inhibition at 0.3 µM ([2]; BT-549, Formula (III) 300 nM alone (Table 8)): 78% | inhibition at 0.3 µM ([2]; BT-549, Formula (III) 300 nM alone (Table 9)): 55.9% | inhibition at 0.3 µM ([2]; BT-549, Formula (III) 300 nM alone (Table 10)): 62.8% | inhibition at 0.3 µM ([2]; BT-549, Formula (III) 300 nM alone): 31.9% | inhibition at 0.38 µM ([2]; BT-549, Formula (III) 380 nM alone (Table 8)): 75.8% | inhibition at 0.4 µM ([2]; BT-549, Formula (III) 400 nM alone (Table 9)): 36.3% | inhibition at 0.4 µM ([2]; BT-549, Formula (III) 400 nM alone (Table 10)): 38.5% | MTT metabolization ([3]; 0 to 2 μM after 72 h, 500 nM over 6 days): inhibited the MTT metabolization in a dose and time dependent manner | growth inhibition ([3]; doses in the submicromolar (nanomolar) range, all cell lines studied): more than 80% | IC50 ([3]; read-out: IC50 dose (MTT metabolization)): 500 nM | increase of cells in G2/M phase [4]: 22% | increase of cells in G2/M phase [5]: 15% | increase of cells in G2/M phase [6]: 18% | concentration range of kinase affinity and inhibition [7]: nanomolar and subnanomolar range
